Laboratory results reported in PMC4391943, “Novel Epigallocatechin-3-Gallate (EGCG) Derivative as a New Therapeutic Strategy for Reducing Neuropathic Pain after Chronic Constriction Nerve Injury in Mice” (PLoS ONE, 2015).
Like-named read-outs stand apart in the source and are kept apart here. Values belong to the compound of their own block, whether it stands above or below them.

Experiments:
[1] = design: method as in PMID 22559865; conditions: daily doses of 5, 25 or 40 mg/Kg; cited from earlier work
[2] = Hepatic, renal and hematological function serum markers in treated mice; format: in vivo, Balb/c; conditions: for Hematocrit / Hemoglobin / Lymphocytes / Monocytes / Neutrophils / platelet count: Balb/c; for ALP (alkaline phosphatase), hepatic function / ALT (alanine transaminase), hepatic function / AST (aspartate transaminase), hepatic function / BUN (urea), renal function / Creatinin, renal function: Balb/c serum

SMILES: O=C(Oc1cccc2c(OC(=O)c3cc(O)c(O)c(O)c3)cccc12)c1cc(O)c(O)c(O)c1 [Compound 23, 1,5-Bis [(3,4,5-trihydroxybenzoyl)oxy] naphthalene]
hepatic, renal and hematological function serum markers vs control [1]: no significant alteration

Hematocrit ([2]; 50 mg/Kg): 42.4 ± 2.2% | Hemoglobin ([2]; 50 mg/Kg): 14.2 ± 0.8 g/dL | Lymphocytes ([2]; 50 mg/Kg): 51.2 ± 13.9% | Monocytes ([2]; 50 mg/Kg): 1.4 ± 0.1% | Neutrophils ([2]; 50 mg/Kg): 32.0 ± 22.9% | platelet count ([2]; 50 mg/Kg): 826 10^3/µL | ALP (alkaline phosphatase), hepatic function ([2]; 50 mg/Kg): 97.2 ± 20.3 U/L | BUN (urea), renal function ([2]; 50 mg/Kg): 21.9 ± 7.5 mg/dL | Creatinin, renal function ([2]; 50 mg/Kg): 0.30 ± 0.1 mg/dL | Hematocrit ([2]; 75 mg/Kg): 38.3 ± 2.8% | Hemoglobin ([2]; 75 mg/Kg): 13.6 ± 0.3 g/dL | Lymphocytes ([2]; 75 mg/Kg): 50.2 ± 7.5% | Monocytes ([2]; 75 mg/Kg): 1.9 ± 1.4% | Neutrophils ([2]; 75 mg/Kg): 30.7 ± 8.1% | platelet count ([2]; 75 mg/Kg): 849 10^3/µL | ALP (alkaline phosphatase), hepatic function ([2]; 75 mg/Kg): 86.5 ± 30.3 U/L | BUN (urea), renal function ([2]; 75 mg/Kg): 21.1 ± 6.8 mg/dL | Creatinin, renal function ([2]; 75 mg/Kg): 0.31 ± 0.1 mg/dL | hepatic, renal and hematological function serum markers vs control ([2]; daily doses of 50 and 75 mg/Kg (S2 Table)): no significant alteration
SMILES: O=C(Oc1ccc(-c2ccc(OC(=O)c3cc(O)c(O)c(O)c3)cc2)cc1)c1cc(O)c(O)c(O)c1 [Compound 30, 4,4′-Bis [(3,4,5-trihydroxybenzoyl)oxy]-1,1′-biphenyl]
ALT (alanine transaminase), hepatic function ([2]; 50 mg/Kg): 210.3 ± 28.2 U/L | AST (aspartate transaminase), hepatic function ([2]; 50 mg/Kg): 266.5 + 80.3 U/L | ALT (alanine transaminase), hepatic function ([2]; 75 mg/Kg): 290.2 + 31 U/L | AST (aspartate transaminase), hepatic function ([2]; 75 mg/Kg): 320.3 + 45.5 U/L
